Experimental data as given in the NIST ThermoML archive (doi:10.1021/je900410j).
Numbers after ± are expanded uncertainties.

Settings: Crystal; DTA

Structure (SMILES) | Normal melting temperature
CCCCCCCC(=O)OCC(COC(=O)CCCCCCC)OC(=O)CCCCCCC [1,2,3-propanetriol trioctanoate] | 9.60 ± 0.53 °C
CCCCCCCC/C=C\CCCCCCCC(=O)OCC(COC(=O)CCCCCCC/C=C\CCCCCCCC)OC(=O)CCCCCCC/C=C\CCCCCCCC [1,2,3-tri(cis-9-octadecenoyl)glycerol] | 5.27 ± 0.53 °C
CCCCCCCCCCCCCCCC(=O)O [hexadecanoic acid] | 63.32 ± 0.53 °C
CCCCCCCCCCCCCCCCCC(=O)O [octadecanoic acid] | 70.23 ± 0.53 °C
CCCCCCCCCCCCCC(=O)O [tetradecanoic acid] | 55.41 ± 0.53 °C
CC/C=C\C/C=C\C/C=C\CCCCCCCC(=O)OCC(COC(=O)CCCCCCC/C=C\C/C=C\C/C=C\CC)OC(=O)CCCCCCC/C=C\C/C=C\C/C=C\CC [trilinolenin] | -22.0 ± 0.53 °C
